# Peptide text beside a SMILES is read from it. * marks the point of attachment. Cbz = O=C(OCc1ccccc1)*
# B1: CaMKII-δ9 shRNA: miR30-based CaMKII-δ9 shRNA (SEQ ID NO: 37) targeting exon 16, expressed transgenically in mice (nucleic acid)
# DNA: GAAGGTATATTGCTGTTGACAGTGAGCGCAATCCACAACCCTGACGGAAATAGTGAAGCCACAGATGTATTTCCGTCAGGGTTGTGGATTATGCCTACTGCCTCGG
# Columns and labels:
# CaMKII-δ9 = CaMKII-δ9 protein level, phosphorylation and oxidation in NRVMs under stress; type: cell-based, rat; conditions: for expression of CaMKII-δ9 (protein): Dox 1 μM or H2O2 200 μM, 24 h
# Procedure: NRVMs were isolated from 1-day-old Sprague-Dawley rats, and adenovirus-mediated gene transfer was implemented using methods described previously (Zhang, T. et al., Nature medicine 22, 175-182, doi: 10.1038/nm.4017 (2016)). […]
# (§1) Western blot and co-immunoprecipitation were performed as previously described (Zhang, T. et al., Nature medicine 22, 175-182, doi:10.1038/nm.4017 (2016)).
# UBE2T [1] = assay: Immunostaining of myc-tagged UBE2T location in NRVMs; type: cell-based, rat; set-up: dose or concentration left out as unconfirmed
# Procedure: (§2) Cardiomyocyte immunofluorescence was measured as previously described (Erickson, J. R. et al., Physiological reviews 91, 889-915, doi:10.1152/physrev.00018.2010 (2011)).
# UBE2T [2] = assay: UBE2T protein level by western blot in NRVMs; type: cell-based, rat; conditions: for CaMKII-δ9-induced reduction of the UBE2T protein level: β-lac 5 μM, MG132 10 μM
# Procedure: NRVMs were isolated from 1-day-old Sprague-Dawley rats, and adenovirus-mediated gene transfer was implemented using methods described previously (Zhang, T. et al., Nature medicine 22, 175-182, doi: 10.1038/nm.4017 (2016)). NRVMs were exposed to H2O2 (200 μM) or Dox (1 μM) for 24 h.
# as §1
# NRVMs = assay: DNA damage by γH2AX and comet assay in NRVMs; type: cell-based, rat; conditions: β-lac 5 μM, MG132 10 μM
# Procedure: Cultured neonatal rat ventricular cardiomyocytes (NRVMs) were treated as indicated, and then washed with cold PBS, following the protocol of the comet assay kit (Trevigen, Cat #: 4250-050-K) under alkaline conditions. Mean tail moments were quantified for 300-500 cells per sample in each experiment, with Comet Assay Software Project (v1.2.3b1).
# as §2
# exon 16 of CaMKII-δ = assay: Transverse aortic constriction (TAC) in CaMKII-δ9 shRNA transgenic mice; type: in vivo, mouse
# Procedure: Transverse aortic constriction (TAC) was performed in 6-week-old male mice. Mice were anesthetized under 3% isoflurane via intubation, the chest was opened, the aortic arch was visualized, and a 7-0 silk suture was passed under the arch between the innominate and left common carotid arteries. The suture was secured around both the aorta and a 28-gauge needle, the needle was removed, the chest was closed, and the mouse was extubated. Sham-operated mice underwent an identical procedure except for the aortic ligation. Mice were given buprenorphine via intraperitoneal injection during recovery.
# The sequence of miR30-based CaMKII-δ9 shRNA was 5′-[…] […]-3′ (SEQ ID NO: 37). The shRNA with an N-terminal EGFP tag and C-terminal BGH poly A sequences was cloned into the pLKO.1 plasmid containing the U6 promoter. After linearization, gel-purification was performed. This construct was microinjected into the pronuclei of fertilized C57BL/6J mouse eggs. PCR was used for genotyping. The primer sequences were 5′-[…]-3′ (forward) (SEQ ID NO: 38) and 5′-[…]-3′ (reverse) (SEQ ID NO: 39).
# Echocardiographic analysis using a Vevo2100 digital imaging system (Visual Sonics, Toronto, ON, Canada) was performed under 1% isoflurane at 6 and 10 weeks of age, with mid-ventricular M and B mode measurements acquired in the parasternal short-axis view at the level of the papillary muscles. Once the mice were acclimated to the procedures, images were stored in digital format on a magnetic optical disk for review and analysis. Measurements of the LV internal end-diastolic diameter (LVIDd) were made at the time of apparent maximal LV diastolic dimension, while measurements of the LV internal end-systolic diameter (LVIDs) were taken at the time of the most anterior systolic excursion of the posterior wall. LV ejection fraction (EF) was calculated by the cubic method: LVEF (%)={(LVIDd)^3−(LVIDs)^3}/(LVIDd)^3×100, and LV fractional shortening (FS) was calculated by FS (%)=(LVIDd−LVIDs)/LVIDd×100. The data were averaged from 5 cardiac cycles.
# Histological analysis of heart tissue was as previously described (Zhang, T. et al. Nature medicine 22, 175-182, doi: 10.1038/nm.4017 (2016)). The CardioTACS™ in situ apoptosis detection kit (Roche Applied Science, Cat #: 11684795910) was used for TUNEL staining as previously described (Zhang, T. et al. Nature medicine 22, 175-182, doi:10.1038/nm.4017 (2016)).
molecule,measurement,setting,value
COc1cccc2c1C(=O)c1c(O)c3c(c(O)c1C2=O)C[C@@](O)(C(=O)CO)C[C@@H]3O[C@H]1C[C@H](N)[C@H](O)[C@H](C)O1 [Doxorubicin],expression of CaMKII-δ9 (protein),CaMKII-δ9,significantly elevated
same,oxidation level of CaMKII-δ9,"CaMKII-δ9; Dox 1 μM, 30 and 60 min",increased
same,phosphorylation level of CaMKII-δ9,"CaMKII-δ9; Dox 1 μM, 30 and 60 min",increased
CC(C)C[C@@H](C=O)NC(=O)[C@H](CC(C)C)NC(=O)[C@H](CC(C)C)NC(=O)OCc1ccccc1 [MG132] (Cbz-Leu-Leu-Leu-aldehyde),subcellular location of UBE2T,UBE2T [1],present in both the nuclear and cytosolic compartments
same,CaMKII-δ9-induced reduction of the UBE2T protein level,UBE2T [2],fully abolished
same,CaMKII-δ9-mediated γH2AX upregulation,NRVMs,block
OO [H2O2],UBE2T protein level,"UBE2T [2]; NRVMs, western blot",decreased
same,expression of CaMKII-δ9 (protein),CaMKII-δ9,significantly elevated
"CC(C)[C@H](O)[C@@]12NC(=O)[C@H](C)[C@@H]1OC2=O [β-lac, clasto-lactacystin β-lactone]",CaMKII-δ9-induced reduction of the UBE2T protein level,UBE2T [2],fully abolished
same,CaMKII-δ9-mediated γH2AX upregulation,NRVMs,block
B1,TAC-induced cardiac DNA damage (γH2AX),exon 16 of CaMKII-δ; 4 weeks after TAC surgery,reduced
same,TAC-induced cardiac hypertrophy,exon 16 of CaMKII-δ; 4 weeks after TAC surgery,markedly attenuated
same,TAC-induced cardiomyocyte death (TUNEL),exon 16 of CaMKII-δ; 4 weeks after TAC surgery,reduced
same,"TAC-induced contractile dysfunction (EF, FS)",exon 16 of CaMKII-δ; 4 weeks after TAC surgery,markedly attenuated
same,cardiac UBE2T protein abundance,exon 16 of CaMKII-δ; 4 weeks after TAC surgery,augmented
same,TAC-induced premature death,exon 16 of CaMKII-δ; Kaplan-Meier survival,markedly attenuated
